Results from patent US12116343B2, “Inhibitors of APOL1 and methods of using same” (Vertex Pharmaceuticals Incorporated, priority 2020, dated 2024).

Each compound was assayed against T1, G1 APOL1 (Homo sapiens, UniProt O14791, I384M/S342G) (assay: Acute APOL1 Thallium Assay with inducible stable clones of HEK 293 cells). Conditions: HEK 293 T-Rex cells expressing G1 APOL1; read-out: Thallium Assay (IC50).
T1 construct: expressed in transfected cells
T1 sequence (O14791 28-398 S342G/I384M): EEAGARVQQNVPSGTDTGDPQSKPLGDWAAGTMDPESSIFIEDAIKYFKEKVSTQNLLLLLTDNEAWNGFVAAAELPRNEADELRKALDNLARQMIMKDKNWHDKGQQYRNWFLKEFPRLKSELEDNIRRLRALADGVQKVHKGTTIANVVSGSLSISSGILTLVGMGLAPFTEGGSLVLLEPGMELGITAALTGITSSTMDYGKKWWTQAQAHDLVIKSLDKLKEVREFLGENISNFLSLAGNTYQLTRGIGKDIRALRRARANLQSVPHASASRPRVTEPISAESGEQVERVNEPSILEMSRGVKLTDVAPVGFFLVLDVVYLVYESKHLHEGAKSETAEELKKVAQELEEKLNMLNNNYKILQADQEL
Type: cell-based
Text: Acute APOL1 Thallium Assay with Inducible Stable Clones of HEK 293 Cells
Apolipoprotein L1 (APOL1) proteins form potassium-permeable cation pores in the plasma membrane. APOL1 risk variants (G1 and G2) induce greater potassium flux than G0 in HEK293 cells. This assay exploits the permeability of thallium (Tl+) through ligand-gated potassium channels. The dye produces a bright fluorescent signal upon binding to Tl+ conducted through potassium channels. The intensity of the Tl+ signal is proportional to the number of potassium channels in the open state. Therefore, it provides a functional indication of the potassium channel activities. During the initial dye-loading step, the Tl+ indicator dye as an acetoxymethyl (AM) ester enters the cells through passive diffusion. Cytoplasm esterases cleave the AM ester and relieve its active thallium-sensitive form. The cells are then stimulated with Tl+. The increase of fluorescence in the assay represents the influx of Tl+ into the cell specifically through the potassium channel (i.e. through APOL1 pores), providing a functional measurement of potassium channel/pore activity. The Thallium assay is conducted with cells expressing G1 APOL1.
APOL1 Cell Line (HEK T-Rex Stable Inducible Cell Line) • HEK T-Rex System • Tetracycline (Tet) inducible mammalian expression system. • Stably express the Tet repressor to regulate transcription. • Expression under the full-length CMV promoter. • APOL1 stable inducible cell line Clone used: G1 DC3.25
Tissue Culture Media • Cell Culture Medium • DMEM+10% FBS+P/S+5 μg/mL blasticidin+1 μg/mL puromycin. • 500 mL DMEM+55 mL FBS+5 mL P/S+280 μL blasticidin S HCl (10 mg/mL)+56 μL puromycin (10 mg/mL). • Cell Assay Medium • DMEM with 2% FBS+pen strep.
Instruments and Equipment • Nuaire cell culture hood, Cat. No. 540-600 • 37° C./5% CO2 incubator link to robotic arm, Liconic: STX110 • Molecular Devices FLIPR^Tetra High throughput cellular screening system, Cat. No. FT0324, Molecular Devices • ThermoFisher MultiDrop 384, Cat. No. 5840300 • Biotek Microfill, Cat. No. ASF1000A-4145 • BioRad TC10 cell counter, Cat. No. 145-0010 Assay Procedures
Cells Scaled Up from Frozen Vials • APOL1 G1 3.25 (HEK293 T-Rex) frozen vials: 5 million cells per vial • Step 1, Day 1: Defrost frozen vial into T-225. • Step 2, Day 5: (when 85% confluent): Split one T-225 at 3×10^6 cells per flask. • Step 3, Day 8: Splits cells to set up for the assay plates as described below.
T-Rex APOL1 HEK cells are split twice per week to keep the confluence state below 85% of the culture flask surface area. Cells can be kept until passage 25. • Cell Culture Medium • DMEM high glucose+10% FBS, +P/S, +5 μg/mL blasticidin, +1 μg/mL puromycin. • 500 mL DMEM, +55 mL FBS, +5 mL P/S, +280 μL blasicidin 10 mg/mL, +56 μL Puromycin 10 mg/mL. • Assay Media • Opti-MEM reduced serum medium from Invitrogen.
Preparation of Cell Assay Plates • Culture medium is removed from the x cm^2 T-flask by aspiration. • The cell monolayer is rinsed with PBS 1× at room temperature. PBS is removed by aspiration. • Cells are trypsinized using Trypsin. • The flasks are incubated at room temperature for 2-3 minutes. • Complete DMEM medium is then added. Cell suspension is then transferred to a 50 mL Falcon polypropylene tube. • Cells are then counted using a Biorad TC10 cell counter and the required amount of cells are centrifuged at 1200 RPM for 5 minutes. Required amount is 1.3×10^6 cells/mL APOL1 T-Rex HEK cells. • The pellet is suspended in the assay medium. • Using the MultiDrop, add 20 μL to each well (corresponds to 26000 cells total per well) of a 384-well black, transparent, flat bottom Poly-D coated plate. • Tetracycline as prepared in the following section is added to the cells before plating to induce APOL1 expression. • Plates are left at room temperature for 20 to 30 minutes before incubation at 37° C. and 5% CO2. […]

SMILES	IC50 [µM]
CC(C)CC(NC(=O)[C@H]1C[C@@H](c2c(-c3ccc(F)cc3)[nH]c3c(F)cc(F)cc32)C1)C(N)=O (some centres unmarked) [Compound 255]	> 1
C[C@H](CO)NC(=O)[C@H]1C[C@@H](c2c(-c3ccc(F)cc3)[nH]c3c(F)cc(F)cc32)C1 [Compound 272]	> 1
O=C(NCC(F)(F)F)[C@H]1C[C@@H](c2c(-c3ccc(F)cc3)[nH]c3c(F)cc(F)cc32)C1 [Compound 260]	0.25 to 1
O=C(NC1(CO)CC1)[C@H]1C[C@@H](c2c(-c3ccc(F)cc3)[nH]c3c(F)cc(F)cc32)C1 [Compound 253]	> 1
O=C(NC(CO)(CO)CO)[C@H]1C[C@@H](c2c(-c3ccc(F)cc3)[nH]c3c(F)cc(F)cc32)C1 [Compound 273]	0.25 to 1
O=C([C@H]1C[C@H](c2c(-c3ccc(F)cc3)[nH]c3c(F)cc(F)cc32)C1)N1CCOC(CO)C1 (some centres unmarked) [Compound 152]	> 1

Now from value to compound:

IC50 [µM]	SMILES
< 0.25	O=C(NC1(CO)CC1)C1(F)CC(c2c(-c3ccc(F)cc3)[nH]c3c(F)cc(F)cc23)C1 (centres unmarked) [Compound 285]
> 1	O=C(CNC(=O)[C@H]1C[C@H](c2c(-c3ccc(F)cc3)[nH]c3c(F)cc(F)cc32)C1)NC[C@H](O)C(F)(F)F [Compound 234]
> 1	O=C(CNC(=O)[C@H]1C[C@H](c2c(-c3ccc(F)cc3)[nH]c3c(F)cc(F)cc32)C1)NCCO [Compound 231]
0.25 to 1	O=C(N[C@@H](CO)C(F)F)[C@H]1C[C@@H](c2c(-c3ccc(F)cc3)[nH]c3c(F)cc(F)cc32)C1 [Compound 276]
> 1	O=C(NCCn1cccc1)[C@H]1C[C@@H](c2c(-c3ccc(F)cc3)[nH]c3c(F)cc(F)cc32)C1 [Compound 262]

Same assay, conditions: Table 24, Compounds 287 to 465; read-out: Thallium Assay (IC50)

SMILES	IC50 [µM]
CCNC(=O)N1CC(c2c(-c3ccc(F)cc3)[nH]c3c(F)cc(F)cc23)C1 [Compound 464, 3-[5,7-difluoro-2-(4-fluorophenyl)-1H-indol-3-yl]-N-ethyl-azetidine-1-carboxamide]	0.25 to 1
O=C(NC[C@H]1C[C@H](c2c(-c3ccc(F)cc3)[nH]c3c(F)cc(F)cc32)C1)NC1(CO)CCOC1 (some centres unmarked) [Compound 425]	> 1
O=C(NCc1cnn(CC(F)(F)F)c1)C1CC(Cc2c(-c3ccc(F)cc3)[nH]c3c(F)cc(F)cc23)C1 (centres unmarked) [Compound 331]	> 1
Cc1ccc(CNC(=O)O[C@H]2C[C@H](c3c(-c4ccc(F)cc4)[nH]c4c(F)cc(F)cc43)C2)o1 [Compound 375]	> 1
O=C(Nc1ccc[nH]c1=O)C1CC(Cc2c(-c3ccc(F)cc3)[nH]c3c(F)cc(F)cc23)C1 (centres unmarked) [Compound 339]	> 1
C[C@H](CO)NC(=O)C1CCC(c2c(-c3ccc(F)cc3)[nH]c3c(F)cc(F)cc23)C1 (stereo partly drawn) [Compound 463, 3-[5,7-difluoro-2-(4-fluorophenyl)-1H-indol-3-yl]-N-[(1R)-2-hydroxy-1-methyl-ethyl]cyclopentanecarboxamide]	> 1
O=C(NC[C@H]1C[C@H](c2c(-c3ccc(F)cc3)[nH]c3c(F)cc(F)cc32)C1)N1CCC[C@@H]1CO [Compound 405]	> 1
O=C(NCc1cocn1)C1CC(Cc2c(-c3ccc(F)cc3)[nH]c3c(F)cc(F)cc23)C1 (centres unmarked) [Compound 341]	> 1
CC(C)CC(NCC1CC(c2c(-c3ccc(F)cc3)[nH]c3c(F)cc(F)cc23)C1)C(N)=O (centres unmarked) [Compound 441]	> 1
CC1(C)CC(C)(NC(=O)NC[C@H]2C[C@H](c3c(-c4ccc(F)cc4)[nH]c4c(F)cc(F)cc43)C2)C(=O)O1 (mixture of isomers) [Compound 392]	> 1
CC(C)C(CO)NC(=O)O[C@H]1C[C@H](c2c(-c3ccc(F)cc3)[nH]c3c(F)cc(F)cc32)C1 (some centres unmarked) [Compound 380]	> 1
O=C(N[C@H]1CCNC1=O)N[C@H]1C[C@H](c2c(-c3ccc(F)cc3)[nH]c3c(F)cc(F)cc32)C1 [Compound 297]	> 1
O=C(NCC1CC(F)(F)C1)C1CC(Cc2c(-c3ccc(F)cc3)[nH]c3c(F)cc(F)cc23)C1 (centres unmarked) [Compound 328]	> 1
Cc1c(CNC(=O)C2CC(Cc3c(-c4ccc(F)cc4)[nH]c4c(F)cc(F)cc34)C2)cnn1C (centres unmarked) [Compound 333]	> 1
C[C@@H](O)[C@@H](CO)NC(=O)O[C@H]1C[C@H](c2c(-c3ccc(F)cc3)[nH]c3c(F)cc(F)cc32)C1 [Compound 372]	> 1
O=C(NCC1CCCO1)C1CC(Cc2c(-c3ccc(F)cc3)[nH]c3c(F)cc(F)cc23)C1 (centres unmarked) [Compound 321]	> 1
CN(C(=O)NC[C@H]1C[C@H](c2c(-c3ccc(F)cc3)[nH]c3c(F)cc(F)cc32)C1)C1COCC1O (some centres unmarked) [Compound 415]	> 1
C[C@H](NCC1CC(c2c(-c3ccc(F)cc3)[nH]c3c(F)cc(F)cc23)C1)C(N)=O (some centres unmarked) [Compound 439]	> 1
CC(C)NC(=O)CNC[C@H]1C[C@H](c2c(-c3ccc(F)cc3)[nH]c3c(F)cc(F)cc32)C1 [Compound 451]	> 1
CC[C@H](NCC1CC(c2c(-c3ccc(F)cc3)[nH]c3c(F)cc(F)cc23)C1)C(=O)NCC(F)(F)F (some centres unmarked) [Compound 443]	> 1

Other lines, results leading:

IC50 [µM]	SMILES
> 1	O=C(NC[C@H]1CC[C@@H](CO)O1)NC[C@H]1C[C@H](c2c(-c3ccc(F)cc3)[nH]c3c(F)cc(F)cc32)C1 [Compound 422]
0.25 to 1	O=C(NCCO)O[C@H]1C[C@H](c2c(-c3ccc(F)cc3)[nH]c3c(F)cc(F)cc32)C1 [Compound 350]
> 1	CON(C)C(=O)CN[C@H]1C[C@H](c2c(-c3ccc(F)cc3)[nH]c3c(F)cc(F)cc32)C1 [Compound 292]
> 1	O=C(NCCO)NC[C@H]1C[C@H](c2c(-c3ccc(F)cc3)[nH]c3c(F)cc(F)cc32)C1 [Compound 393]
0.25 to 1	CNC(=O)NC[C@H]1C[C@H](c2c(-c3ccc(F)cc3)[nH]c3c(F)cc(F)cc32)C1 [Compound 391, 1-(((1r,3r)-3-(5,7-difluoro-2-(4-fluorophenyl)-1H-indol-3-yl)cyclobutyl)methyl)-3-methylurea]
> 1	CCNC(=O)NC[C@H]1C[C@H](c2c(-c3ccc(F)cc3)[nH]c3c(F)cc(F)cc32)C1 [Compound 410]
> 1	NC(=O)CN[C@H]1C[C@H](c2c(-c3ccc(F)cc3)[nH]c3c(F)cc(F)cc32)C1 [Compound 294]
> 1	Cn1cc(CNC(=O)O[C@H]2C[C@H](c3c(-c4ccc(F)cc4)[nH]c4c(F)cc(F)cc43)C2)nn1 [Compound 387]
> 1	NC(=O)CCNC1CC(c2c(-c3ccc(F)cc3)[nH]c3c(F)cc(F)cc23)C1 (centres unmarked) [Compound 287, 3-[[3-[5,7-difluoro-2-(4-fluorophenyl)-1H-indol-3-yl]cyclobutyl]amino]propanamide]
> 1	C[C@H](CO)N(C)C(=O)NC[C@H]1C[C@H](c2c(-c3ccc(F)cc3)[nH]c3c(F)cc(F)cc32)C1 [Compound 404]
